pEC50: −log10 of the molar value. Where a name gives a salt, the structure may show the parent alone.
Each compound was assayed against T1, hiNOS (Homo sapiens, UniProt P35228) (assay: DAN assay, hiNOS expressed in transiently transfected HEK293 cells). Details: HEK293 cells transiently transfected with hiNOS.
T1 construct: expressed in transfected cells; host or cells: HEK293
Assay type: cell-based
How it was run: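 Human iNOS, nNOS or eNOS transiently expressed in HEK293 cells, with nNOS and eNOS needing added cofactors for activity. NO production is read as nitrite by fluorometry: 2,3-diaminonaphthalene forms fluorescent […], detecting 10 nM to 10 μM nitrite.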
With `Cc1cc(C(C)NCCNCc2ccc(-n3cccc3)cc2)nc(-n2ccnc2)n1` (stereo not shown) [Example 97, N-[1-(2-Imidazol-1-yl-6-methyl-pyrimidin-4-yl)-ethyl]-N′-(4-pyrrol-1-yl-benzyl)-ethane-1,2-diamine] the pEC50 was greater than 4.30. Compound `COc1ccc(CNCCNC(C)c2cc(C)nc(-n3ccnc3)n2)cc1F` (stereo not shown) [Example 98, N-(3-Fluoro-4-methoxy-benzyl)-N′-[1-(2-imidazol-1-yl-6-methyl-pyrimidin-4-yl)-ethyl]-ethane-1,2-diamine] has a pEC50 greater than 6.00. In the case of `COc1ccc(CNCCNC(C)c2cc(C)nc(-n3ccnc3)n2)cc1O` (stereo not shown) [Example 100, 5-({2-[1-(2-Imidazol-1-yl-6-methyl-pyrimidin-4-yl)-ethylamino]-ethylamino}-methyl)-2-methoxy-phenol], the pEC50 was greater than 4.30. Compound `c1cn(-c2nsc(N(CCCNCc3ccc4c(c3)OCO4)Cc3ccc4occc4c3)n2)cn1` [Example 101, N′-Benzo[1,3]dioxol-5-ylmethyl-N-benzofuran-5-ylmethyl-N-(3-imidazol-1-yl-[1,2,4]thiadiazol-5-yl)-propane-1,3-diamine] has a pEC50 greater than 6.00. For `c1cncc(CN(CCCNCc2ccc3c(c2)OCO3)c2nc(-n3ccnc3)ns2)c1` [Example 102, N′-Benzo[1,3]dioxol-5-ylmethyl-N-(3-imidazol-1-yl-[1,2,4]thiadiazol-5-yl)-N-pyridin-3-ylmethyl-propane-1,3-diamine], the pEC50 was greater than 6.00. In the case of `Oc1ccc(CN(CCCNCc2ccc3c(c2)OCO3)c2nc(-n3ccnc3)ns2)cc1` [Example 103, 4-{[{3-[(Benzo[1,3]dioxol-5-ylmethyl)-amino]-propyl}-(3-imidazol-1-yl-[1,2,4]thiadiazol-5-yl)-amino]-methyl}-phenol], the pEC50 was greater than 6.00. Compound `CSc1ccc(CN(CCCNCc2ccc3c(c2)OCO3)c2nc(-n3ccnc3)ns2)cc1` [Example 104, N′-Benzo[1,3]dioxol-5-ylmethyl-N-(3-imidazol-1-yl-[1,2,4]thiadiazol-5-yl)-N-(4-methylsulfanyl-benzyl)-propane-1,3-diamine] has a pEC50 greater than 6.00. Compound `CN(C)c1ccc(CN(CCCNCc2ccc3c(c2)OCO3)c2nc(-n3ccnc3)ns2)cc1` [Example 105, N-Benzo[1,3]dioxol-5-ylmethyl-N′-(4-dimethylamino-benzyl)-N′-(3-imidazol-1-yl-[1,2,4]thiadiazol-5-yl)-propane-1,3-diamine] has a pEC50 greater than 6.00. `Cn1cnc(CN(CCCNCc2ccc3c(c2)OCO3)c2nc(-n3ccnc3)ns2)c1` [Example 106, N′-Benzo[1,3]dioxol-5-ylmethyl-N-(3-imidazol-1-yl-[1,2,4]thiadiazol-5-yl)-N-(1-methyl-1H-imidazol-4-ylmethyl)-propane-1,3-diamine] showed a pEC50 greater than 6.00. For `Cc1cc(CNC(=O)C2CCCN2Cc2ccc(C(F)(F)F)cc2)nc(-n2ccnc2)n1` (stereo not shown) [Example 107, 1-(4-Trifluoromethyl-benzyl)-pyrrolidine-2-carboxylic acid (2-imidazol-1-yl-6-methyl-pyrimidin-4-ylmethyl)-amide], the pEC50 was less than 4.30. For `Cc1cc(CNC(=O)C2CCCN2Cc2cccc(C(F)(F)F)c2)nc(-n2ccnc2)n1` (stereo not shown) [Example 108, 1-(3-Trifluoromethyl-benzyl)-pyrrolidine-2-carboxylic acid (2-imidazol-1-yl-6-methyl-pyrimidin-4-ylmethyl)-amide], the pEC50 was less than 4.30. With `Cc1cc(CNC(=O)C2CCCN2Cc2ccccn2)nc(-n2ccnc2)n1` (stereo not shown) [Example 109, 1-Pyridin-2-ylmethyl-pyrrolidine-2-carboxylic acid (2-imidazol-1-yl-6-methyl-pyrimidin-4-ylmethyl)-amide] the pEC50 was less than 4.30. `COc1cc(CN2CCCC2C(=O)NCc2cc(C)nc(-n3ccnc3)n2)cc(OC)c1` (stereo not shown) [Example 110, 1-(3,5-Dimethoxy-benzyl)-pyrrolidine-2-carboxylic acid (2-imidazol-1-yl-6-methyl-pyrimidin-4-ylmethyl)-amide] showed a pEC50 of less than 4.30. `Cc1cc(CNC(=O)C2CCCN2Cc2ccc(F)cc2)nc(-n2ccnc2)n1` (stereo not shown) [Example 111, 1-(4-Fluoro-benzyl)-pyrrolidine-2-carboxylic acid (2-imidazol-1-yl-6-methyl-pyrimidin-4-ylmethyl)-amide] gave a pEC50 of less than 4.30. `Cc1cc(CNC(=O)C2CCCN2Cc2ccc(F)c(F)c2)nc(-n2ccnc2)n1` (stereo not shown) [Example 112, 1-(3,4-Difluoro-benzyl)-pyrrolidine-2-carboxylic acid (2-imidazol-1-yl-6-methyl-pyrimidin-4-ylmethyl)-amide] was tested, and the pEC50 was less than 4.30. `Cc1cc(CNC(=O)C2CCCN2Cc2ccc(Cl)cc2)nc(-n2ccnc2)n1` (stereo not shown) [Example 113, 1-(4-Chloro-benzyl)-pyrrolidine-2-carboxylic acid (2-imidazol-1-yl-6-methyl-pyrimidin-4-ylmethyl)-amide] was tested, and the pEC50 was greater than 4.30. With `COc1ccc(CN2CCCC2C(=O)NCc2cc(C)nc(-n3ccnc3)n2)cc1O` (stereo not shown) [Example 114, 1-(3-Hydroxy-4-methoxy-benzyl)-pyrrolidine-2-carboxylic acid (2-imidazol-1-yl-6-methyl-pyrimidin-4-ylmethyl)-amide] the pEC50 was less than 4.30. `Cc1cc(CNC(=O)C2CCCN2Cc2ccc(OC(C)C)cc2)nc(-n2ccnc2)n1` (stereo not shown) [Example 115, 1-(4-Isopropoxy-benzyl)-pyrrolidine-2-carboxylic acid (2-imidazol-1-yl-6-methyl-pyrimidin-4-ylmethyl)-amide] showed a pEC50 of less than 4.30. Compound `Cc1cc(CNC(=O)C2CCCN2Cc2ccc3c(c2)OCO3)nc(-n2ccnc2)n1` (stereo not shown) [Example 116, 1-Benzo[1,3]dioxol-5-ylmethyl-pyrrolidine-2-carboxylic acid (2-imidazol-1-yl-6-methyl-pyrimidin-4-ylmethyl)-amide] has a pEC50 of less than 4.30. With `Cc1cc(CNC(=O)C2CCCN2Cc2ccc(OCCO)cc2)nc(-n2ccnc2)n1` (stereo not shown) [Example 117, 1-[4-(2-Hydroxy-ethoxy)-benzyl]-pyrrolidine-2-carboxylic acid (2-imidazol-1-yl-6-methyl-pyrimidin-4-ylmethyl)-amide] the pEC50 was less than 4.30. Compound `Cc1cc(CNC(=O)C2CCCN2Cc2ccco2)nc(-n2ccnc2)n1` (stereo not shown) [Example 118, 1-Furan-2-ylmethyl-pyrrolidine-2-carboxylic acid (2-imidazol-1-yl-6-methyl-pyrimidin-4-ylmethyl)-amide] has a pEC50 of less than 4.30. `Cc1cc(CNC(=O)C2CCCN2Cc2ccsc2)nc(-n2ccnc2)n1` (stereo not shown) [Example 119, 1-Thiophen-3-ylmethyl-pyrrolidine-2-carboxylic acid (2-imidazol-1-yl-6-methyl-pyrimidin-4-ylmethyl)-amide] was tested, and the pEC50 was less than 4.30. With `O=C(NCCc1ccc2c(c1)OCCO2)[C@H]1CCCN1c1nc(-n2ccnc2)ns1` [Example 120, 1-(3-Imidazol-1-yl-[1,2,4]thiadiazol-5-yl)-pyrrolidine-2-carboxylic acid [2-(2,3-dihydro-benzo[1,4]dioxin-6-yl)-ethyl]-amide] the pEC50 was greater than 6.00. `CC(C)[C@@H](Nc1nc(-n2ccnc2)ns1)C(=O)NCCc1ccc2c(c1)OCO2` [Example 122, (R)—N-(2-Benzo[1,3]dioxol-5-yl-ethyl)-2-(3-imidazol-1-yl-[1,2,4]thiadiazol-5-ylamino)-3-methyl-butyramide] showed a pEC50 greater than 6.00. With `O=C(NCCc1ccc2c(c1)OCCO2)[C@H]1C[C@@H](O)CN1c1nc(-n2ccnc2)ns1` [Example 123, (2R,4R)-4-Hydroxy-1-(3-imidazol-1-yl-[1,2,4]thiadiazol-5-yl)-pyrrolidine-2-carboxylic acid [2-(2,3-dihydro-benzo[1,4]dioxin-6-yl)-ethyl]-amide] the pEC50 was greater than 6.00. `Cc1cc(C2C(C(=O)NCCc3ccc4c(c3)OCCO4)CCN2C)nc(-n2ccnc2)n1` (stereo not shown) [Example 124, 2-(2-Imidazol-1-yl-6-methyl-pyrimidin-4-yl)-1-methyl-pyrrolidine-3-carboxylic acid [2-(2,3-dihydro-benzo[1,4]dioxin-6-yl)-ethyl]-amide] gave a pEC50 greater than 6.00. In the case of `Cc1cc(C2C(C(=O)NCCc3ccc4c(c3)OCO4)CCN2C)nc(-n2ccnc2)n1` (stereo not shown) [Example 125, 2-(2-Imidazol-1-yl-6-methyl-pyrimidin-4-yl)-1-methyl-pyrrolidine-3-carboxylic acid (2-benzo[1,3]dioxol-5-yl-ethyl)-amide], the pEC50 was greater than 6.00. Compound `O=C(NCCc1ccc2c(c1)OCCO2)[C@H]1C[C@H](O)CN1c1nc(-n2ccnc2)ns1` [Example 126, (2R,4S)-4-Hydroxy-1-(3-imidazol-1-yl-[1,2,4]thiadiazol-5-yl)-pyrrolidine-2-carboxylic acid [2-(2,3-dihydro-benzo[1,4]dioxin-6-yl)-ethyl]-amide] has a pEC50 greater than 6.00. `CN(CCNCCc1ccc2c(c1)OCO2)c1nc(-n2ccnc2)ns1` [Example 127, N′-(2-Benzo[1,3]dioxol-5-yl-ethyl)-N-(3-imidazol-1-yl-[1,2,4]thiadiazol-5-yl)-N-methyl-ethane-1,2-diamine] showed a pEC50 greater than 6.00. With `CN(CCc1ccc2c(c1)OCO2)CCN(C)c1nc(-n2ccnc2)ns1` [Example 128, N-(2-Benzo[1,3]dioxol-5-yl-ethyl)-N′-(3-imidazol-1-yl-[1,2,4]thiadiazol-5-yl)-N,N′-dimethyl-ethane-1,2-diamine] the pEC50 was greater than 6.00. `O=C(NCCc1ccc2c(c1)OCO2)[C@H]1Cc2ccccc2CN1c1nc(-n2ccnc2)ns1` [Example 129, (R)-2-(3-Imidazol-1-yl-[1,2,4]thiadiazol-5-yl)-1,2,3,4-tetrahydro-isoquinoline-3-carboxylic acid (2-benzo[1,3]dioxol-5-yl-ethyl)-amide] was tested, and the pEC50 was greater than 6.00. `Cc1cc(C2CCCCN2CCN(C)Cc2ccc3c(c2)OCO3)nc(-n2ccnc2)n1` (stereo not shown) [Example 134] was tested, and the pEC50 was greater than 6.00. In the case of `CCOC(=O)CC(NCCNCc1ccc2c(c1)OCO2)c1cc(C)nc(-n2ccnc2)n1` (stereo not shown) [Example 135, Benzo[1,3]dioxol-5-ylmethyl-{2-[2-ethoxycarbonyl-1-(2-imidazol-1-yl-6-methyl-pyrimidin-4-yl)-ethylamino]-ethyl}-ammonium trifluoroacetate], the pEC50 was greater than 6.00. `CNC(=O)CC(NCCNCc1ccc2c(c1)OCO2)c1cc(C)nc(-n2ccnc2)n1` (stereo not shown) [Example 136, Benzo[1,3]dioxol-5-ylmethyl-{2-[1-(2-imidazol-1-yl-6-methyl-pyrimidin-4-yl)-2-methylcarbamoyl-ethylamino]-ethyl}-ammonium trifluoroacetate] showed a pEC50 greater than 6.00.

Source: patent US7825256B2, “Inducible nitric oxide synthase dimerization inhibitors” (Kalypsys, Inc., priority 2004, dated 2010)
